# Laboratory results as given in BindingDB's records for doi:10.1046/j.1471-4159.1997.68062263.x (Dynamique Des Systemes Neuroendocriniens, 1997).
# Numbered stars: 1 amine (or outer) side, 2 acyl side, 3 side chain; on linkers, the order of the positions; unused ones are H or OH. Bridge positions count the residues as written; N and C are the ends. Square brackets hold non-standard residues; d marks the D form. Peptide text beside a SMILES is read from it. ξ: configuration not given here. Phe(4-CH2NHiPr) = CC(C)NCc1ccc(C[C@H](N)C(=O)O)cc1; X1 = CC(C)NCc1ccc(C[C@@H](N[*:1])C(=O)[*:2])cc1; d1Nal = N[C@H](Cc1cccc2ccccc12)C(=O)O; Thr(3ξ) = CC(O)[C@H](N)C(=O)O; ξF = NC(Cc1ccccc1)C(=O)O; ξK = NCCCCC(N)C(=O)O; ξT = CC(O)C(N)C(=O)O
# Tests used:
# [1] = biological target: T1, Somatostatin receptor type 5 (Rattus norvegicus, UniProt P30938)
# T1 sequence (P30938 whole entry): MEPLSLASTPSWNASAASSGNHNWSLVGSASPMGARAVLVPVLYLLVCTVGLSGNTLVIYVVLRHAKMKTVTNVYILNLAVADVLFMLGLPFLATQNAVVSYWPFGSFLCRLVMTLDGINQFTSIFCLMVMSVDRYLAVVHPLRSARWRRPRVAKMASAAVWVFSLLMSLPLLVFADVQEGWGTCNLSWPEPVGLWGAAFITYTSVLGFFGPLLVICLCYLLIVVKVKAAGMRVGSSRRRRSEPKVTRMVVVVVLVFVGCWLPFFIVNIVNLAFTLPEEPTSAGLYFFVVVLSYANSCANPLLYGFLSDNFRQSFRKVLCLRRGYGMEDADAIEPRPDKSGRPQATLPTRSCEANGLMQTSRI
# [2] = biological target: Somatostatin receptor type 2 (Rattus norvegicus, UniProt P30680)
# [3] = biological target: Somatostatin receptor type 3 (Rattus norvegicus, UniProt P30936)
# [4] = biological target: Somatostatin receptor type 1 (Rattus norvegicus, UniProt P28646)
# [5] = biological target: Somatostatin receptor type 4 (Rattus norvegicus, UniProt P30937)
# Chain of Somatostatin receptor type 4 (P30937 whole entry): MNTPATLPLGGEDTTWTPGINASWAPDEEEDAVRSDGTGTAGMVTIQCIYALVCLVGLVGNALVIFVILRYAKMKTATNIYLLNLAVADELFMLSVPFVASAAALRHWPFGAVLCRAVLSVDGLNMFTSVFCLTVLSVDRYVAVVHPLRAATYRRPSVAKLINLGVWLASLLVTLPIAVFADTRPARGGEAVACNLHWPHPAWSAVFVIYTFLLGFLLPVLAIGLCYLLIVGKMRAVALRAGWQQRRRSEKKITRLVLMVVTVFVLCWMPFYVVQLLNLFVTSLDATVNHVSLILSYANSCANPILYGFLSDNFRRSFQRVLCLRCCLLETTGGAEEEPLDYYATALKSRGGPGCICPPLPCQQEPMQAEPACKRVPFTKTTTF
# Chain of Somatostatin receptor type 3 (P30936 whole entry): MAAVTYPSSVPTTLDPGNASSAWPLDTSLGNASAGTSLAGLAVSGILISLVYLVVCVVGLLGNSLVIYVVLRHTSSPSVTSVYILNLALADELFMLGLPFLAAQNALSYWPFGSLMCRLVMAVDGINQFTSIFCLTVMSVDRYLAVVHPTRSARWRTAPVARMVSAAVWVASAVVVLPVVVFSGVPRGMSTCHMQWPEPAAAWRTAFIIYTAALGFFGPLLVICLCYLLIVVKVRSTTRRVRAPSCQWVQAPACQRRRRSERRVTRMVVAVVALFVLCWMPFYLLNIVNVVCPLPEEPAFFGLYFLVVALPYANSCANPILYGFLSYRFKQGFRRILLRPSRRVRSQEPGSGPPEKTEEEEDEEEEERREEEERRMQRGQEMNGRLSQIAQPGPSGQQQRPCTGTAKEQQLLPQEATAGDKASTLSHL
# Chain of Somatostatin receptor type 2 (P30680 whole entry): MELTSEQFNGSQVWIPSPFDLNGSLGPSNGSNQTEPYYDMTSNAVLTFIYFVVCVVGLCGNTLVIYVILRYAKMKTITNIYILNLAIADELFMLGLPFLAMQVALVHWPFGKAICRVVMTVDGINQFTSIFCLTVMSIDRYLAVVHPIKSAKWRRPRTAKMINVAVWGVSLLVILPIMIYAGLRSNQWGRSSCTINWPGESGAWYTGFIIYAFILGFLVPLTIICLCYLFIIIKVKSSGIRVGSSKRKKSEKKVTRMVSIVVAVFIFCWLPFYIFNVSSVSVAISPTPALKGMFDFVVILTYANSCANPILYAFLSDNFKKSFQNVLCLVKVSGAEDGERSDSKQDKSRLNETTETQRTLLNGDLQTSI
# Chain of Somatostatin receptor type 1 (P28646 whole entry): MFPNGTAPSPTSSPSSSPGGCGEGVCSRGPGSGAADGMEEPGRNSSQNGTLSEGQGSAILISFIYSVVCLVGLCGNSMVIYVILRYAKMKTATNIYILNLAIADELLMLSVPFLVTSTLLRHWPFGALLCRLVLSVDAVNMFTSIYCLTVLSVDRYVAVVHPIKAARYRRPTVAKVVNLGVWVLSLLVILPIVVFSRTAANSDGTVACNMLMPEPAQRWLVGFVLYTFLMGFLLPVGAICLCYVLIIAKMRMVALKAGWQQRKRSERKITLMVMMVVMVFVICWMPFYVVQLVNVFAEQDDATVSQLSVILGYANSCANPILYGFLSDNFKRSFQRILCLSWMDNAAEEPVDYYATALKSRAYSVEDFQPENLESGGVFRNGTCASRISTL
Ki [1] [nM],Ki [2] [nM],Ki [3] [nM],Ki [4] [nM],Ki [5] [nM],Structure (SMILES)
32.5,–,–,–,–,CC(C)[C@H](NC(=O)[C@H](CCCCN)NC(=O)[C@@H](Cc1c[nH]c2ccccc12)NC(=O)[C@H](Cc1ccc(O)cc1)NC(=O)[C@H](Cc1ccccc1)NC(=O)[C@@H](N)Cc1ccccc1)C(=O)N[C@@H](Cc1ccccc1)C(=O)N[C@H](Cc1cccc2ccccc12)C(N)=O [BIM 23056] (H-FFY[dW]KVF[d1Nal]-NH2)
–,835,380,301,83.8,CC(C)[C@H](NC(=O)[C@H](CCCCN)NC(=O)[C@@H](Cc1c[nH]c2ccccc12)NC(=O)[C@H](Cc1ccc(O)cc1)NC(=O)[C@H](Cc1ccccc1)NC(=O)[C@H](N)Cc1ccccc1)C(=O)N[C@@H](Cc1ccccc1)C(=O)N[C@H](Cc1cccc2ccccc12)C(N)=O [BIM 23056] (H-[dF]FY[dW]KVF[d1Nal]-NH2)
8.2,163,4.6,–,8.4,C[C@@H](O)[C@H](NC(=O)[C@H](Cc1ccccc1)NC(=O)[C@@H](NC(=O)[C@H](CCCCN)NC(=O)[C@@H](Cc1c[nH]c2ccccc12)NC(=O)[C@H](Cc1ccccc1)NC(=O)[C@H](Cc1ccccc1)NC(=O)[C@H](N)Cc1ccccc1)[C@@H](C)O)C(N)=O [CAS_133073-82-2] (H-[dF]FF[dW]KTFT-NH2)
–,1000,577,45.7,465,CC(C)NCc1ccc(C[C@@H]2NC(=O)[C@@H](Cc3c[nH]c4ccccc34)NC(=O)[C@H](Cc3ccccc3)NC(=O)[C@H](Cc3ccccc3)NC(=O)[C@H](CCCCN)NC(=O)[C@@H](N)CSSC[C@@H](C(=O)O)NC(=O)[C@H](CO)NC(=O)[C@H]([C@@H](C)O)NC(=O)[C@H](Cc3ccccc3)NC(=O)[C@H]([C@@H](C)O)NC2=O)cc1 [CH-275] (H-CKFF[dW][Phe(4-CH2NHiPr)]TFTSC-OH; disulfide 1-11)
279,–,–,–,–,CC(C)NCc1ccc(C[C@H]2NC(=O)[C@H](Cc3c[nH]c4ccccc34)NC(=O)C(Cc3ccccc3)NC(=O)C(Cc3ccccc3)NC(=O)C(CCCCN)NC(=O)[C@H](N)CSSC[C@H](C(=O)O)NC(=O)[C@@H](CO)NC(=O)[C@H](C(C)O)NC(=O)[C@@H](Cc3ccccc3)NC(=O)C(C(C)O)NC2=O)cc1 (stereo not given in full) [CH-275] (H-[dC][ξK][ξF][ξF]W[X1][ξT][dF][Thr(3ξ)][dS][dC]-OH; disulfide 1-11)

Structure (SMILES),Ki [1] [nM],Ki [2] [nM],Ki [3] [nM],Ki [4] [nM],Ki [5] [nM]
C[C@H](N)C(=O)NCC(=O)N[C@@H]1CSSC[C@@H](C(=O)O)NC(=O)[C@H](CO)NC(=O)[C@@H]([C@@H](C)O)NC(=O)[C@H](Cc2ccccc2)NC(=O)[C@@H]([C@@H](C)O)NC(=O)[C@H](CCCCN)NC(=O)[C@@H](Cc2c[nH]c3ccccc23)NC(=O)[C@H](Cc2ccccc2)NC(=O)[C@@H](Cc2ccccc2)NC(=O)[C@H](CC(N)=O)NC(=O)[C@@H](CCCCN)NC1=O,2.6,–,–,–,–
